Measurements reported in article PMC7480398 (Phytomedicine, 2020).

Key:
Format in all cases: biochemical
CYP1A1 = target: T1, CYP1A1 (Homo sapiens, UniProt P04798)
T1 sequence (P04798 1-512): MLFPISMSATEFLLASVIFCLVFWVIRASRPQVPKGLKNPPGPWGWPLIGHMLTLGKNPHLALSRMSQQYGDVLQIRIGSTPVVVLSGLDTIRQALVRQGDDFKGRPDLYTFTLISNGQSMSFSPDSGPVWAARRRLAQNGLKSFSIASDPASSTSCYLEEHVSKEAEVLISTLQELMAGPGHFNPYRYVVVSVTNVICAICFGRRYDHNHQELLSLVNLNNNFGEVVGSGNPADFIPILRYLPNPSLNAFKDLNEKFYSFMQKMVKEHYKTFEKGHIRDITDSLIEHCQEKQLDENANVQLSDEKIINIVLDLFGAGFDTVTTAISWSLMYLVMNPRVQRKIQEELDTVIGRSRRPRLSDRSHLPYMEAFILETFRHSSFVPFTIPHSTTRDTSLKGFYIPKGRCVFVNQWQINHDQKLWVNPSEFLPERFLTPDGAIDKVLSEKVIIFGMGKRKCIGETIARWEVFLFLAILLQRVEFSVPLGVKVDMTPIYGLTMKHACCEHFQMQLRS

PTGS1 = target: T2, PTGS1 (Ovis aries, UniProt P05979); assay: colorimetric enzyme activity assay
T2 sequence (P05979 25-600): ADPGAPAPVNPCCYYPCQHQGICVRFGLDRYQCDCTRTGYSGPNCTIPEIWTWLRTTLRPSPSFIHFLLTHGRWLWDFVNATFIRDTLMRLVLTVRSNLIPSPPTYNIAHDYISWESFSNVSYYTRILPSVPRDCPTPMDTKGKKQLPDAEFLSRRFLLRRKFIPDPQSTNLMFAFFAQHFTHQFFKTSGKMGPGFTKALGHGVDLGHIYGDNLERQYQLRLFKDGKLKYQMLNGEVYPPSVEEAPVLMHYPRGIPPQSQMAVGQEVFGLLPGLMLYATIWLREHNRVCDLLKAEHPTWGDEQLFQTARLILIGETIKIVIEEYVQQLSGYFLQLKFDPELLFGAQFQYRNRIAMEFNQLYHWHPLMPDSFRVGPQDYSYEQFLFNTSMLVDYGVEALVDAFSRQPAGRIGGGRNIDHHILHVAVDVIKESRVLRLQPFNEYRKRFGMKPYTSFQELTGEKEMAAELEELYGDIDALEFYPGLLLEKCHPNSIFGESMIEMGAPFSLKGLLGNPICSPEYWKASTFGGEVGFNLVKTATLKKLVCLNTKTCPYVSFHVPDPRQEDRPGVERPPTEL

CYP3A4 = CYP3A4 (Homo sapiens, UniProt P08684); assay: fluorescent probe substrate; settings: liver microsomes
Chain of CYP3A4 (P08684 2-503): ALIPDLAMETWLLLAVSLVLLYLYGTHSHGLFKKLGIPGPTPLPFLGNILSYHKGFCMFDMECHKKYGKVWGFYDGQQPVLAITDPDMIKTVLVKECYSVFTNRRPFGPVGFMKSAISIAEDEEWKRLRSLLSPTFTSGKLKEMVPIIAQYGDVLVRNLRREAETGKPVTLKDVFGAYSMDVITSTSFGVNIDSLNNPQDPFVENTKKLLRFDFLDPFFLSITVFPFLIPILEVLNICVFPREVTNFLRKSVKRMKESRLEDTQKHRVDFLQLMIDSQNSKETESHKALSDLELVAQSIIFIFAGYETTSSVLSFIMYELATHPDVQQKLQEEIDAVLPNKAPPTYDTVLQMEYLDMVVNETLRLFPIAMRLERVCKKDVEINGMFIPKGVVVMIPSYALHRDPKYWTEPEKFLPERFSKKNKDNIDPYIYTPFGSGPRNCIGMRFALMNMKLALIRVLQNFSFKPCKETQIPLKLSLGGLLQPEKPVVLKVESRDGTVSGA

`O=c1c(O[C@@H]2O[C@H](CO)[C@H](O)[C@H](O)[C@H]2O)c(-c2ccc(O)c(O)c2)oc2cc(O)cc(O)c12` [hyperoside] showed an IC50 (CYP1A1) of 105 ± 18.9 µM.

For `O=C(O)[C@H]1O[C@@H](Oc2cc3oc(-c4ccccc4)cc(=O)c3c(O)c2O)[C@H](O)[C@@H](O)[C@@H]1O` [baicalin], the “colorimetric enzyme activity assay (590 nm)” value (PTGS1) was “Baicalin inhibited pure PTGS1 and AA induced platelet aggregation at the concentration as shown”.

Work on `CC(=O)O[C@@H](C[C@@H](C)C1=C2C[C@H](O)[C@H]3[C@@]4(C)CCC(=O)C(C)(C)[C@@H]4CC[C@]3(C)[C@@]2(C)CC1)[C@H]1OC1(C)C` [alisol B 23-acetate] yielded an IC50 (CYP3A4) of 0.45 ± 0.03 µM.
